Values of other authors in US20040147441A1, “Methods and reagents for preventing bacteremias” (priority 2002, published 2004).
Values after ≈ are worked out from the molar mass of the structure shown.

Columns and labels:
[1] = tested on: E. faecalis (strains K-99-34, K-00-184, and K-00-221); conditions: Rhee 2002
[2] = tested on: E. facium (multidrug resistant); conditions: Mobarakai et al. 1994
[3] = tested on: C. Difficile; conditions: Dong et al. 1987
[4] = tested on: S. aureus Strain Smith; conditions: Mueller-Hinton Broth
[5] = tested on: S. aureus (methicillin susceptible); conditions: J. Antimicrob. Chemother. 48: 283-286, 2001
[6] = tested on: S. aureus (methicillin resistant)
[7] = tested on: S. pneumoniae (penicillin susceptible)
[8] = tested on: S. pneumoniae (penicillin resistant)
[9] = tested on: S. pyrogens
[10] = tested on: E. facium (vancomycin susceptible)
[11] = tested on: E. facium (vancomycin resistant)
[12] = tested on: E. faecalis (vancomycin susceptible)

**Q.** For `CC(C)C[C@@H]1NC(=O)[C@@H]2CCCN2C1=O` [Cyclo(leu-pro), cyclo-(Leu-Pro)], which “MIC (minimal growth inhibitory concentration)” value [1] is on record?
**A.** MIC = 12.5 μg/ml

**Q.** For `CCCCCCCCCC(=O)N[C@@H](Cc1c[nH]c2ccccc12)C(=O)N[C@H](CC(N)=O)C(=O)N[C@@H](CC(=O)O)C(=O)N[C@@H]1C(=O)NCC(=O)N[C@@H](CCCN)C(=O)N[C@@H](CC(=O)O)C(=O)N[C@H](C)C(=O)N[C@@H](CC(=O)O)C(=O)NCC(=O)N[C@H](CO)C(=O)N[C@@H]([C@H](C)CC(=O)O)C(=O)N[C@@H](CC(=O)c2ccccc2N)C(=O)O[C@@H]1C` [daptomycin], which “MIC (minimal growth inhibitory concentration)” value [2] is on record?
**A.** MIC = 2.0-4.0 μg/ml

**Q.** And the “MIC (minimal growth inhibitory concentration)” value [3]?
**A.** MIC = 16.0 μg/ml

**Q.** And the “MIC (no CaCl2)” value [4]?
**A.** 1 µg/mL (≈ 0.617 µM)

**Q.** What about the “MIC (with CaCl2)” value [4] of the same molecule?
**A.** 0.5 µg/mL (≈ 0.309 µM)

**Q.** For `CN[C@H](CC(C)C)C(=O)N[C@H]1C(=O)N[C@@H](CC(N)=O)C(=O)N[C@H]2C(=O)N[C@H]3C(=O)N[C@H](C(=O)N[C@H](C(=O)O)c4cc(O)cc(O)c4-c4cc3ccc4O)[C@H](O[C@H]3C[C@](C)(N)[C@@H](O)[C@H](C)O3)c3ccc(c(Cl)c3)Oc3cc2cc(c3O[C@@H]2O[C@H](CO)[C@@H](O)[C@H](O)[C@H]2O[C@H]2C[C@](C)(NCc3ccc(-c4ccc(Cl)cc4)cc3)[C@@H](O)[C@H](C)O2)Oc2ccc(cc2Cl)[C@H]1O` [oritavancin], which “MBC (minimal bactericidal concentration)” value [5] is on record?
**A.** 4.0 to 8.0 µg/mL

**Q.** What about the “MIC (minimal growth inhibitory concentration)” value [5] of the same molecule?
**A.** 2.0 to 4.0 µg/mL

**Q.** What about the “MBC (minimal bactericidal concentration)” value [6] of the same molecule?
**A.** 8.0 to 16.0 µg/mL

**Q.** What about the “MIC (minimal growth inhibitory concentration)” value [6] of the same molecule?
**A.** 2.0 to 4.0 µg/mL

**Q.** What about the “MBC (minimal bactericidal concentration)” value [7] of the same molecule?
**A.** MIC = <0.03; MBC = <0.03 μg/ml

**Q.** And the “MIC (minimal growth inhibitory concentration)” value [7]?
**A.** MIC = <0.03; MBC = <0.03 μg/ml

**Q.** And the “MBC (minimal bactericidal concentration)” value [8]?
**A.** MIC = <0.03; MBC = <0.03 μg/ml

**Q.** And the “MIC (minimal growth inhibitory concentration)” value [8]?
**A.** MIC = <0.03; MBC = <0.03 μg/ml

**Q.** And the “MBC (minimal bactericidal concentration)” value [9]?
**A.** 0.5 to 1.0 µg/mL

**Q.** And the “MIC (minimal growth inhibitory concentration)” value [9]?
**A.** 0.12 to 0.25 µg/mL

**Q.** What about the “MBC (minimal bactericidal concentration)” value [10] of the same molecule?
**A.** 1.0 to 2.0 µg/mL

**Q.** And the “MIC (minimal growth inhibitory concentration)” value [10]?
**A.** 0.12 to 0.25 µg/mL

**Q.** What about the “MBC (minimal bactericidal concentration)” value [11] of the same molecule?
**A.** 4.0 to 8.0 µg/mL

**Q.** And the “MIC (minimal growth inhibitory concentration)” value [11]?
**A.** 1.0 to 2.0 µg/mL

**Q.** And the “MBC (minimal bactericidal concentration)” value [12]?
**A.** 1.0 to 2.0 µg/mL

**Q.** What about the “MIC (minimal growth inhibitory concentration)” value [12] of the same molecule?
**A.** 0.5 to 1.0 µg/mL

**Q.** Which “MIC (no CaCl2)” value [4] does the source give for Aspartocin here?
**A.** 2 µg/mL

**Q.** And the “MIC (with CaCl2)” value [4]?
**A.** 1 µg/mL

**Q.** With Laspartomycin as the molecule, how does the “MIC (no CaCl2)” value [4] read?
**A.** 16 µg/mL

**Q.** What about the “MIC (with CaCl2)” value [4] of the same molecule?
**A.** 2 µg/mL

**Q.** For Zaomycin, which “MIC (no CaCl2)” value [4] is on record?
**A.** 10 µg/mL

**Q.** And the “MIC (with CaCl2)” value [4]?
**A.** 1 µg/mL

**Q.** For teicoplanin, which “MBC (minimal bactericidal concentration)” value [5] is on record?
**A.** 2.0 to 8.0 µg/mL

**Q.** What about the “MIC (minimal growth inhibitory concentration)” value [5] of the same molecule?
**A.** 0.5 to 4.0 µg/mL

**Q.** What about the “MBC (minimal bactericidal concentration)” value [6] of the same molecule?
**A.** 8.0 to 16.0 µg/mL

**Q.** And the “MIC (minimal growth inhibitory concentration)” value [6]?
**A.** 2.0 to 4.0 µg/mL

**Q.** What about the “MBC (minimal bactericidal concentration)” value [7] of the same molecule?
**A.** MIC = <0.03; MBC = <0.03 μg/ml

**Q.** And the “MIC (minimal growth inhibitory concentration)” value [7]?
**A.** MIC = <0.03; MBC = <0.03 μg/ml

**Q.** And the “MBC (minimal bactericidal concentration)” value [8]?
**A.** MIC = <0.03; MBC = <0.03 μg/ml

**Q.** And the “MIC (minimal growth inhibitory concentration)” value [8]?
**A.** MIC = <0.03; MBC = <0.03 μg/ml

**Q.** What about the “MBC (minimal bactericidal concentration)” value [9] of the same molecule?
**A.** 0.06 to 0.25 µg/mL

**Q.** And the “MIC (minimal growth inhibitory concentration)” value [9]?
**A.** 0.03 to 0.06 µg/mL

**Q.** What about the “MBC (minimal bactericidal concentration)” value [10] of the same molecule?
**A.** 2.0 to 4.0 µg/mL

**Q.** And the “MIC (minimal growth inhibitory concentration)” value [10]?
**A.** 0.25 to 0.5 µg/mL

**Q.** What about the “MBC (minimal bactericidal concentration)” value [11] of the same molecule?
**A.** MIC = >16.0; MBC = >16.0 μg/ml

**Q.** What about the “MIC (minimal growth inhibitory concentration)” value [11] of the same molecule?
**A.** MIC = >16.0; MBC = >16.0 μg/ml

**Q.** What about the “MIC (minimal growth inhibitory concentration)” value [2] of the same molecule?
**A.** MIC 8.0-1,024 μg/ml

**Q.** And the “MBC (minimal bactericidal concentration)” value [12]?
**A.** 2.0 to 4.0 µg/mL

**Q.** And the “MIC (minimal growth inhibitory concentration)” value [12]?
**A.** > 0.25 µg/mL
